Experimental data reported in patent US11272841B2, “Indicator fluids, systems, and methods for assessing movement of substances within, to or from a cerebrospinal fluid, brain or spinal cord compartment of a cranio-spinal cavity of a human” (BRAINWIDESOLUTIONS AS, priority 2017, dated 2022).
“And” between values parts separate entries of the source, which are not always exact repeats. Equal values may be shown once. Marks after values point to notes of the source that are not given here.

Assay: Repeated standardized T1-weighted MRI: signal units (SU) in ROIs of CSF, venous space and brain tissue after intrathecal gadobutrol, iNPH versus reference patients (Tables 2-4, FIG. 14b, 16);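 as to Max Increase in SU of T1 signal, numerical change: Gadobutrol 0.5 mL of 1.0 mmol/mL given intrathecally into CSF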;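 as to Max Increase in SU of T1 signal, percentage change: Gadobutrol 0.5 mL of 1.0 mmol/mL given intrathecally into CSF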
Assay type: in vivo, human
Conditions: for Max Increase in SU of T1 signal, numerical change / Max Increase in SU of T1 signal, percentage change: one patient per row; for Average indication signal within brain tissue ROI: one individual, FIG. 14b
Method: The different features of Aspect 2 are based on novel in-vivo observations in humans. […] In the following paragraphs, these novel observations in humans are commented on in more detail. In these studies, the MRI contrast agent gadobutrol served as indicator fluid and MRI SUs were indication signals. MRI T1 weighted signal units were measured when gadobutrol was present within CSF after having been administered to the CSF compartment, and were compared with MR images having identical sequence parameter settings and with no gadobutrol present in CSF. […] With a MW of 605 Da, gadobutrol is a rather large molecule in comparison to the MW of water (H2O) molecule, which is 18 Da. Clearance of gadobutrol is then indicative of clearance of other substances with similar properties.
We explored both movement of the contrast agent within, to, and from the cranio-spinal cavity, including CSF, brain and spinal cord compartment, and from the cranio-spinal cavity to extra-cranial LNs. With gadobutrol present within CSF, blood level concentrations of contrast agents were determined at various time point. The repeated MRI acquisitions made it possible to create clearance curves for one or more pixels, defined by ROIs. ROIs were placed within CSF compartments, brain and spinal cord tissue compartments, and extracranial LN tissue compartments. By means of MRI, we could create graphic curves illustrating clearance of substances (clearance illustrating curves) for defined ROIs built up of a defied number of pixels for each individual. For details of said clearance curves, see FIG. 7. The establishment of clearance curves was dependent on repeated MRI acquisitions over a long period.
Using MRI SUs, we created clearance illustrating curves, see FIG. 7, for the individual patients as well as for groups of individuals. Tables 2-4 illustrate various examples of parameter values of the clearance illustrating curves.
Table 2, as discussed with FIG. 2, illustrates how maximum increase in SUs varies between individuals and patient groups. Tables 3 and 4 compare such clearance curve parameters from two patient groups, namely iNPH and reference (i.e. control) patients, illustrating inter-individual differences and differences between patient groups. These patient groups represent no limitation of the invention as it may be used in various patient groups such as Alzheimer's and dementia in general, brain tumor (e.g. astrocytoma), multiple sclerosis and inflammatory brain disease, stroke (brain infarction or bleeds), sleep disturbances, neurodegenerative disease, CSF circulation disorders, traumatic brain injury, neurometabolic diseases, glaucoma, chronic headache and migraine, and in assessment of ageing in general.
Even though perfect match of ROIs of repeated images may be difficult to obtain, the second aspect of the invention is facilitated by that image acquisition parameters at repeated MRI acquisitions are kept fixed and thus standardized. […] Further, to make best possible alignments of pixels, methods for alignment of repeated MRI acquisitions need to be implemented. Methods for alignment of repeated MRI images belong to prior art. Aids to improve alignment may incorporate landmark locations such as the cranial vault, pineal gland, and ventricular system.
Each image acquisition lasted 6 minutes and 29 seconds.

[1] = CSF space: Lateral Ventricle, iNPH
[2] = CSF space: Precentral sulcus, Reference
[3] = CSF space: Precentral sulcus, iNPH
[4] = CSF space: Sylvian fissure, Reference
[5] = CSF space: Sylvian fissure, iNPH
[6] = Central venous space: Sagittal sinus/confluence, Reference
[7] = Central venous space: Sagittal sinus/confluence, iNPH
[8] = Inferior frontal gyrus (IFG), REF
[9] = Inferior frontal gyrus (IFG), iNPH

Compound: O=C([O-])CN1CCN(CC(=O)[O-])CCN([C@H](CO)[C@H](O)CO)CCN(CC(=O)[O-])CC1.[Gd+3] (racemic) [gadobutrol]
- Clearance coefficient (SU/min) [1]: −0.05 ± 0.04 SU/min
- Clearance time [1]: 1115.1 ± 46.3 min
- Enhancement coefficient (SU/min) [1]: 0.41 SU/min
- Max increase (SU) [1]: 168.5 ± 99.8^b SU
- Max reduction (SU) [1]: −57.3 ± 48.9 SU
- Time to peak [1]: 843.4 ± 560.2 min
- Clearance coefficient (SU/min) (CSF space: Pons, Reference): −0.25 ± 0.08 SU/min
- Clearance time (CSF space: Pons, Reference): 1261.5 ± 137.0 min
- Enhancement coefficient (SU/min) (CSF space: Pons, Reference): 10.8 SU/min
- Max reduction (SU) (CSF space: Pons, Reference): −313.3 ± 105.3 SU
- Time to peak (CSF space: Pons, Reference): 159.8 ± 148.9 min
- Clearance coefficient (SU/min) (CSF space: Pons, iNPH): −0.15 ± 0.08^b SU/min
- Clearance time (CSF space: Pons, iNPH): 1207.9 ± 114.8 min
- Enhancement coefficient (SU/min) (CSF space: Pons, iNPH): 2.4 SU/min
- Max reduction (SU) (CSF space: Pons, iNPH): −177.9 ± 95.5^b SU
- Time to peak (CSF space: Pons, iNPH): 230.9 ± 98.4 min
- Enhancement coefficient (SU/min) [2]: 0.29 SU/min
- Max increase (SU) [2]: 87.8 ± 99.3 SU
- Time to peak [2]: 475.0 ± 601.9 min
- Enhancement coefficient (SU/min) [3]: 0.10 SU/min
- Max increase (SU) [3]: 131.1 ± 94.1 SU
- Time to peak (min) [3]: 1254.7 ± 483.8^b min
- Clearance coefficient (SU/min) [4]: −0.12 ± 0.06 SU/min
- Clearance time [4]: 1162.6 ± 78.1 min
- Enhancement coefficient (SU/min) [4]: 0.9 SU/min
- Max increase (SU) [4]: 204.2 ± 104.4 SU
- Max reduction (SU) [4]: −133.0 ± 68.4 SU
- Time to peak [4]: 258.6 ± 114.8 min
- Clearance coefficient (SU/min) [5]: −0.06 ± 0.05^a SU/min
- Clearance time [5]: 1123.7 ± 41.1 min
- Enhancement coefficient (SU/min) [5]: 0.57 SU/min
- Max increase (SU) [5]: 226.2 ± 100.2 SU
- Max reduction (SU) [5]: −68.0 ± 51.2^a SU
- Time to peak (min) [5]: 689.0 ± 536.3^a min
- Clearance coefficient (SU/min) [6]: −0.008 ± 0.003 SU/min
- Clearance time [6]: 1247.3 ± 175.9 min
- Enhancement coefficient (SU/min) [6]: 0.41 SU/min
- Max increase (SU) [6]: 7.4 ± 9.6 SU
- Max reduction (SU) [6]: −9.5 ± 3.9 SU
- Time to peak [6]: 524.4 ± 591.3 min
- Clearance coefficient (SU/min) [7]: −0.01 ± 0.006 SU/min
- Clearance time [7]: 1287.4 ± 150.9 min
- Enhancement coefficient (SU/min) [7]: 0.16 SU/min
- Max increase (SU) [7]: 8.1 ± 8.0 SU
- Max reduction (SU) [7]: −12.1 ± 6.7 SU
- Time to peak [7]: 350.2 ± 457.3 min
- Max Increase in SU of T1 signal, numerical change (Frontal horn, REF): 23 SU and 7 (7%) SU and 4 SU and 4 (4%) SU and 3 (3%) SU and 9 SU and 17 SU
- Max Increase in SU of T1 signal, percentage change (Frontal horn, REF): 37% and 7 (7%) and 3% and 4 (4%) and 3 (3%) and 8% and 21%
- Max Increase in SU of T1 signal, numerical change (Frontal horn, iNPH): 13 SU and 103 SU and 35 SU and 76 SU and 92 SU and 50 SU and 2 (2%) SU and 49 SU and 53 SU and 42 SU and 8 SU and 19 SU and 21 SU
- Max Increase in SU of T1 signal, percentage change (Frontal horn, iNPH): 15% (2×) and 204% and 40% and 159% and 131% and 98% and 2 (2%) and 126% and 110% and 70% and 22% and 23%
- Max Increase in SU of T1 signal, numerical change [8]: 68 SU and 5 (5%) SU and 24 SU and 13 SU and 23 SU and 37 SU and 18 SU
- Max Increase in SU of T1 signal, percentage change [8]: 80% and 5 (5%) and 27% and 14% and 25% and 41% and 21%
- Max Increase in SU of T1 signal, numerical change [9]: 70 SU and 56 SU and 32 SU and 51 SU and 74 SU and 21 SU and 24 SU and 36 SU and 59 SU and 10 SU (2×) and −1 (−1%) SU and 25 SU
- Max Increase in SU of T1 signal, percentage change [9]: 83% and 68% (2×) and 38% and 63% and 95% and 23% and 31% and 46% and 12% and −1 (−1%) and 11% and 28%
- Max Increase in SU of T1 signal, numerical change (Precentral gyrus, REF): 10 SU and 1 (1%) SU and 8 SU and 2 (2%) SU and 6 SU and 34 SU and 3 SU
- Max Increase in SU of T1 signal, percentage change (Precentral gyrus, REF): 12% and 1 (1%) and 9% and 2 (2%) and 7% and 41% and 4%
- Max Increase in SU of T1 signal, numerical change (Precentral gyrus, iNPH): 28 SU and 7 SU and 7 (7%) SU and 2 (2%) SU (2×) and 18 SU and 5 (5%) SU and 8 SU and 2 SU and 6 SU (2×) and 4 SU and 3 SU
- Max Increase in SU of T1 signal, percentage change (Precentral gyrus, iNPH): 32% and 8% and 7 (7%) and 2 (2%) (2×) and 22% and 5 (5%) and 10% and 3% and 7% (2×) and 5% and 4%
- Max Increase in SU of T1 signal, numerical change (Thalamus, REF): 23 SU and 4 (4%) SU and 3 SU and 2 (2%) SU and 13 (13%) SU (2×) and 8 SU
- Max Increase in SU of T1 signal, percentage change (Thalamus, REF): 26% and 4 (4%) and 2% and 2 (2%) and 13 (13%) (2×) and 9%
- Max Increase in SU of T1 signal, numerical change (Thalamus, iNPH): 16 SU and 23 SU and 9 SU (2×) and 14 SU and 25 SU and 4 (4%) SU and 10 SU and 19 SU and 7 SU and 2 (2%) SU and 12 SU (2×)
- Max Increase in SU of T1 signal, percentage change (Thalamus, iNPH): 18% and 24% and 11% (2×) and 17% and 28% and 4 (4%) and 12% and 21% and 8% and 2 (2%) and 14% and 13%
- Max Increase in SU of T1 signal, numerical change (brain tissue Pons, REF): 20 SU and 5 (5%) SU (2×) and 3 (3%) SU and 9 (9%) SU and 7 (7%) SU and 9 SU
- Max Increase in SU of T1 signal, percentage change (brain tissue Pons, REF): 21% and 5 (5%) (2×) and 3 (3%) and 9 (9%) and 7 (7%) and 10%
- Max Increase in SU of T1 signal, numerical change (brain tissue Pons, iNPH): 17 (17%) SU and 24 (24%) SU and 15 SU and 21 SU and 14 (14%) SU and 4 (4%) SU (2×) and 9 SU (2×) and 18 (18%) SU and 3 (3%) SU and 2 (2%) SU and 6 (6%) SU
- Max Increase in SU of T1 signal, percentage change (brain tissue Pons, iNPH): 17 (17%) and 24 (24%) and 16% and 24% and 14 (14%) and 4 (4%) (2×) and 10% (2×) and 18 (18%) and 3 (3%) and 2 (2%) and 6 (6%)
- SU within ROI (entorhinal cortex, FIG. 16h, intrathecal gadobutrol present for 24 hours (46 SU without)): 136 SU
- Average indication signal within brain tissue ROI (3 hours after intrathecal gadobutrol (80 SU without gadobutrol)): 83 SU
- Average indication signal within brain tissue ROI (9 hours after intrathecal gadobutrol): 103 SU
- Average indication signal within brain tissue ROI (24 hours after intrathecal gadobutrol): 107 SU
- SU within ROI (subcortical area of entorhinal cortex, FIG. 16f, intrathecal gadobutrol present for 24 hours (109 SU without)): 180 SU
